BindingDB's records for doi:10.1021/acs.jmedchem.0c01420 (Ochanomizu University, 2021)

Assay: Agonist activity at VDR in human HL-60 cells assessed as induction of cell differentiation of promyelocytes to monocytes after 4 days by NBT reduction assay

SMILES	EC50
C[C@H](CCC(=O)O)[C@H]1CC[C@H]2[C@@H]3CC[C@@H]4C[C@@H](CC(C)(C)O)CC[C@]4(C)[C@H]3CC[C@]12C	36 nM
C[C@H](CCC(=O)O)[C@H]1CC[C@H]2[C@@H]3CC[C@@H]4C[C@H](CC(C)(C)O)CC[C@]4(C)[C@H]3CC[C@]12C	0.53 nM
